What was measured:
[1] = test system: collagen I, collagen V, fibulin 1, fibronectin, αSMA protein in phLFs; assay: Western blotting of ECM proteins and αSMA in phLFs (lysates and medium supernatants); assay type: cell-based, human
Experimental: Cells were scraped off the plastic dish directly into 200 μl ice-cold RIPA buffer containing 1× Roche complete mini protease inhibitor cocktail. After incubating the samples for 30 minutes on ice, insoluble material was removed by centrifugation at 14.000 g for 15 minutes at 4° C. and the supernatant was further processed. Samples were mixed with 50 mM Tris-HCl, pH 6.8, 100 mM DTT, 2% SDS, 1% bromphenol blue, and 10% glycerol, and proteins were separated using standard SDS-10% PAGE. For immunoblotting, proteins were transferred to PVDF (Millipore (Billerica, MA, (USA)), 0.45 μm or 0.2 μm) membranes, which were blocked with 5% milk in TBST (0.1% Tween 20 in TBS) and incubated with primary, followed by HRP-conjugated secondary antibodies over night at 4° C. and at room temperature for 1 hour, respectively. For immunoblotting the following primary antibodies were used: monoclonal mouse anticollagen type 5 (1 mg/mL) from […] (Cat #sc-166155), polyclonal rabbit anti-collagen type 3 (1 mg/mL) from Rockland (Cat #600-401-105), polyclonal rabbit anti-collagen type 1 (1 mg/mL) from Rockland (Cat #600-401-103-0.5), monoclonal mouse anti-fibulin 1 (1 mg/mL) from SantaCruz (Cat #sc-25281), polyclonal rabbit anti-fibronectin (1 mg/mL) from SantaCruz (Cat #sc-9068), and monoclonal mouse anti-p-actin-peroxidase (AC-15, Sigma, 1:10000). Goat anti-rabbit and goat anti-mouse IgG conjugated to horseradish peroxidase (Cell Signaling, 1:10000) were applied as secondary antibodies. CXCL/IL-8 concentrations were determined using Human IL-8/CXCL8 DuoSet ELISA (DY208-05) according to the manufacturer's protocol.

[2] = test system: TGFβ1-induced fibulin-1 ECM deposition in primary human lung IPF-fibroblasts (phLFs); assay: Assessing N23P activity in inhibiting ECM deposition in IPF-fibroblasts (fibulin-1 MFI); assay type: cell-based; conditions: Homo sapiens, 72 h, 10 μM, TGFβ1 1 ng/ml, MFI
Experimental: phLFs were cultured in DMEM F-12 medium with 20% fetal bovine serum (FBS) and antibiotic supplement as mentioned above. Cells were seeded with 6000 cells/well in 384-well CellCarrier plates (Perkin Elmer, Cat #6007550). Following overnight incubation, cells were starved in serum-reduced medium (1% FBS with 0.1 mM 2-phosphoascorbate (Sigma, Cat #49752)) for 24 h. Afterwards, cells were treated with TGFβ1 (1 ng/ml) or vehicle, and additionally small molecules or appropriate vehicle controls were added. After 72 h of incubation, medium was changed for starving medium with 1 μg/mL AlexaFluor-488 fluorophore conjugated anti-collagen-type-5 antibodies (SantaCruz, Clone C-5, Cat #sc-166155 AF488), 0.66 μg/mL AlexaFluor-555 fluorophore conjugated anti-collagen-type-1 antibodies (Rockland, Cat #600-401-103-0.1), and 1 μg/mL AlexaFluor-637 fluorophore conjugated anti-fibulin 1 antibodies (SantaCruz, Clone C-5, Cat #sc-25281 AF647) and 1 μg/mL Hoechst H33342 (Sigma). Fluorescenceconjugation of the collagen type 1 antibody was done by using the AlexaFluor-555 Protein Labeling Kit (Invitrogen, Cat #A20174) according to manufacturer's instructions. Labeling efficacy was controlled by photometrical means.
Following four hours of incubation, cells were washed three times with PBS and fixed with paraformaldehyde (PFA). For automated liquid handling in 384 well plates, an INTEGRA Assist Plus (INTEGRA, Zizers, Switzerland) equipped with an INTEGRA Viaflo 1I pipette (INTEGRA, Zizers, Switzerland, Cat #4642), 125 μL GripTips™ pipette tips (INTEGRA, Zizers, Switzerland, Cat #6464) and sterile reagent reservoirs (INTEGRA, Cat #4311) were applied. All automated pipetting steps with the INTEGRA Assist Plus were performed at 9.5 μL/s in order to ensure proper integrity and attachment of the deposited ECM to the culturing surface within the wells of the 384-well plates. During cell seeding the automated liquid handling was performed at 89.3 μL/s. Removal of liquids from the well-plates was done by manually inverting the plates.
(§1) Following fixation, the automated imaging was achieved by using aconfocal laser scanning microscope (LSM710, Zeiss) with automated focus detection for three-dimensional image acquisition (1024 px×1024 px×9 px which equals a dimension of 1417 μm×1417 μm×16 μm). For post-acquisition analysis images were imported into IMARIS software (Bitplane) and volume detection or alternatively quantification of the mean fluorescence intensity, as well as Hoechst-stained cell nuclei were automatically counted by using Imaris' spot detection algorithm.
Cells were seeded with 6000 cells/well in 384-well CellCarrier plates. After overnight incubation, cells were starved in serum-reduced medium (1% FBS with 0.1 mM 2-phosphoascorbate for 24 h). Then, phLFs were treated with TGFβ1 (1 ng/ml) or vehicle, and incubated together with synthesized N23Ps (10 μM) or appropriate vehicle controls. After 72 h of incubation, medium was changed for starvation medium with 1 μg/mL AlexaFluor-637 fluorophore conjugated anti-fibulin 1 antibodies (SantaCruz, Clone C-5, Cat #sc-25281 AF647) and 1 μg/mL Hoechst H33342 (Sigma). Following four hours of incubation, cells were washed three times with PBS and fixed with paraformaldehyde (PFA). Following fixation, the automated imaging was achieved by using a confocal laser scanning microscope (LSM710, Zeiss) with automated focus detection for three-dimensional image acquisition (1024 px×1024 px×9 px which equals a dimension of 1417 μm×1417 μm×16 μm). For post-acquisition analysis images were imported into IMARIS software (Bitplane) and quantified for the mean fluorescence intensity, as well as Hoechst-stained cell nuclei were automatically counted by using Imaris' spot detection algorithm.
Assessment of ECM inhibition I: Mean fluorescence intensity (MFI) values represented the degree of fibulin-1 ECM deposition in three different IPF-phLFs (n=3). […]

[3] = test system: ECM deposition of collagen I, collagen V and fibulin 1 by phLFs+TGFβ1; assay: 3D ECM deposition assay (collagen I, collagen V, fibulin 1), dose-response and live imaging; assay type: cell-based, human; conditions: phLFs+TGFβ1+EDHB
Experimental: phLFs were cultured in DMEM F-12 medium with 20% fetal bovine serum (FBS) and antibiotic supplement as mentioned above. Cells were seeded with 6000 cells/well in 384-well CellCarrier plates (Perkin Elmer, Cat #6007550). Following overnight incubation, cells were starved in serum-reduced medium (1% FBS with 0.1 mM 2-phosphoascorbate (Sigma, Cat #49752)) for 24 h. Afterwards, cells were treated with TGFβ1 (1 ng/ml) or vehicle, and additionally small molecules or appropriate vehicle controls were added. […] Fluorescenceconjugation of the collagen type 1 antibody was done by using the AlexaFluor-555 Protein Labeling Kit (Invitrogen, Cat #A20174) according to manufacturer's instructions. […]
as §1, with “algorithm. […]” for “algorithm.”

[4] = concomitant treatment with TGFβ1
[5] = three different IPF-phLFs (n=3)

C[C@H]1CCC/C=C/[C@@H]2C[C@H](O)C[C@H]2[C@H](O)/C=C/C(=O)O1 [BrefeldinA]
secretion of collagen I and fibronectin ([1]; medium supernatants of phLFs): inhibited the secretion

CCCCOc1ccccc1NC(=O)/C=C/c1ccc2[nH]c(C)nc2c1 [Example 161, (E)-N-(2-butoxyphenyl)-3-(2-methyl-1H-benzo[d]imidazol-5-yl)acrylamide]
inhibition at 10 µM ([2]; one or two different IPF-phLFs (n=1-2)): > 90%

CCOC(=O)c1ccc(O)c(O)c1 [EDHB, Ethyl-3,4-dihydroxy-benzoate]
ECM deposition of collagen I, collagen V and fibulin 1 [3]: inhibits the ECM deposition
expression of intracellular collagen I, collagen V and fibulin 1 [1, 4]: statistically significant suppression
secreted collagen I [1, 4]: significant suppression

CCCCOc1ccccc1NC(=O)/C(C)=C/c1ccc(OC)cc1 [Example 79, (E)-N-(2-butoxyphenyl)-3-(4-methoxyphenyl)-2-methylacrylamide]
inhibition at 10 µM [2, 5]: 60 to 90%

COc1ccc(/C=C/C(=O)Nc2ccccc2OCc2ccc(F)cc2)cc1 [Example 5, (E)-N-(2-((4-fluorobenzyl)oxy)phenyl)-3-(4-methoxyphenyl)acrylamide]
inhibition at 10 µM [2, 5]: > 90%
